Source: ChEMBL document CHEMBL6153037, “Developing dual-responsive quinolinium prodrugs of 8-hydroxyquinoline by harnessing the dual chelating sites” (Eur J Med Chem, 2025)
In brackets after ≈: the same amount, converted by molar mass. One block for each compound: values may come before it. Activity calls are given as the source filed them. The calls are words filed in the database; no cut-off is given here.

How the values were obtained:
MDA-MB-231 [1] = experiment: Cytotoxicity against human MDA-MB-231 cells assessed as inhibition of cell viability incubated for 48 hrs by MTT assay; type: functional, cell-based; details: MDA-MB-231, 48 h
MDA-MB-231 [2] = experiment: Cytotoxicity against human MDA-MB-231 cells incubated for 24 to 48 hrs by MTT assay; type: functional, cell-based; details: time 24-48 hrs
MDA-MB-231 [3] = experiment: Induction of apoptosis in human MDA-MB-231 cells assessed as viable cells incubated for 24 hrs by Annexin V-FITC/PI staining based flow cytometry (reference value: 99.5 %); type: functional
[4] = Induction of apoptosis in human MCF-10A cells assessed as viable cells incubated for 24 hrs by Annexin V-FITC/PI staining based flow cytometry (reference value: 96.0 %); type: toxicity, cell-based; details: read-out: Activity
[5] = Lipophilicity, logP of compound; type: physicochemical; details: octanol/water
MDA-MB-231 [6] = experiment: Effect on phlorizin-induced cytotoxicity against human MDA-MB-231 cells incubated for 12 hrs by MTT assay; type: functional, cell-based
MDA-MB-231 [7] = experiment: Induction of apoptosis in human MDA-MB-231 cells assessed as early apoptotic cells incubated for 24 hrs by Annexin V-FITC/PI staining based flow cytometry (reference value: 0.22 %); type: functional
MDA-MB-231 [8] = experiment: Antitumor activity against human MDA-MB-231 cells assessed as sphere-forming efficiency incubated for 6 hrs followed by medium replacement without compound measured after 6 days by microscopic analysis (reference value: 1.07 %); type: functional
MCF-10A [9] = experiment: Induction of apoptosis in human MCF-10A cells assessed as early apoptotic cells incubated for 24 hrs by Annexin V-FITC/PI staining based flow cytometry (reference value: 1.66 %); type: toxicity, cell-based
MCF-10A [10] = experiment: Induction of apoptosis in human MCF-10A cells assessed as late apoptotic cells incubated for 24 hrs by Annexin V-FITC/PI staining based flow cytometry (reference value: 2.16 %); type: toxicity, cell-based
MCF-10A [11] = experiment: Induction of apoptosis in human MCF-10A cells assessed as necrotic cells incubated for 24 hrs by Annexin V-FITC/PI staining based flow cytometry (reference value: 0.17 %); type: toxicity, cell-based
[12] = Solubility of compound in PBS buffer at pH 7.4; type: physicochemical
MDA-MB-231 [13] = experiment: Induction of apoptosis in human MDA-MB-231 cells assessed as necrotic cells incubated for 24 hrs by Annexin V-FITC/PI staining based flow cytometry (reference value: 0.065 %); type: functional
[14] = Cytotoxicity against human MCF-10A cells assessed as inhibition of cell viability incubated for 48 hrs by MTT assay; type: toxicity, cell-based
[15] = Toxicity in BALB/c nude mouse xenografted with human MDA-MB-231 cells assessed as body weight change at 20 mg/kg, iv administered every two days for 21 days; type: organism-based; details: in vivo, 504 h, time 21 day
MDA-MB-231 [16] = experiment: Induction of apoptosis in human MDA-MB-231 cells assessed as late apoptotic cells incubated for 24 hrs by Annexin V-FITC/PI staining based flow cytometry (reference value: 0.17 %); type: functional
[17] = Solubility of compound in double distilled H2O; type: physicochemical; details: double distilled water
[18] = Lipophilicity, logD of compound at pH 7.4; type: physicochemical; details: buffer
[19] = Selectivity index, ratio of inhibition of DNA synthesis in human MCF-10A cells to inhibition of DNA synthesis in human MDA-MB-231 cells; type: toxicity, cell-based; details: MCF-10A cells and MDA-MB-231 cells
MDA-MB-231 [20] = experiment: Inhibition of mitochondrial membrane potential in human MDA-MB-231 cells assessed as increase in intracellular calcium ion level incubated for 24 hrs by Fluo-4 AM dye based analysis; type: functional, cell-based
MDA-MB-231 [21] = experiment: Cytotoxicity against human MDA-MB-231 cells incubated for 24 hrs by MTT assay; type: functional, cell-based; details: MDA-MB-231, 24 h
MDA-MB-231 [22] = experiment: Inhibition of mitochondrial membrane potential in human MDA-MB-231 cells incubated for 24 hrs by JC-1 dye based analysis; type: functional, cell-based
MCF-10A [23] = experiment: Cytotoxicity against human MCF-10A cells assessed as inhibition of cell viability at 150 uM incubated for 48 hrs by MTT assay; type: toxicity, cell-based
MDA-MB-231 [24] = experiment: Induction of apoptosis in human MDA-MB-231 cells incubated for 24 hrs by TUNEL assay; type: functional, cell-based
MDA-MB-231 [25] = experiment: Antitumor activity against human MDA-MB-231 cells xenografted in BALB/c nude mouse assessed as tumor size at 20 mg/kg, iv administered every two days for 21 days (reference value: 1940 mm3); type: functional; details: time 21 day
MDA-MB-231 [26] = experiment: Inhibition of mitochondrial membrane potential in human MDA-MB-231 cells assessed as decrease in ATP level incubated for 24 hrs by luminescence based analysis; type: functional, cell-based
MDA-MB-231 [27] = experiment: Antitumor activity against human MDA-MB-231 cells assessed as reduction in sphere volume incubated for 6 hrs followed by medium replacement without compound measured after 6 days by microscopic analysis; type: functional, cell-based
MCF-10A [28] = experiment: Induction of apoptosis in human MCF-10A cells assessed as increase in caspase-3 activity incubated for 24 hrs; type: toxicity, cell-based
MDA-MB-231 [29] = experiment: Cytotoxicity against human MDA-MB-231 cells incubated for 48 hrs by MTT assay; type: functional, cell-based; details: MDA-MB-231, 48 h
MDA-MB-231 [30] = experiment: Antitumor activity against human MDA-MB-231 cells xenografted in BALB/c nude mouse at 20 mg/kg, iv administered every two days for 21 days relative to control; type: functional; details: MDA-MB-231, 504 h, time 21 day, read-out: TGI
MCF-10A [31] = experiment: Inhibition of mitochondrial membrane potential in human MCF-10A cells incubated for 24 hrs by JC-1 dye based analysis; type: toxicity, cell-based
MDA-MB-231 [32] = experiment: Antitumor activity against human MDA-MB-231 cells xenografted in BALB/c nude mouse assessed as tumor growth inhibition at 20 mg/kg, iv administered every two days for 21 days; type: functional, organism-based; details: time 21.0 day
MDA-MB-231 [33] = experiment: Induction of apoptosis in human MDA-MB-231 cells assessed as increase in caspase-3 activity incubated for 24 hrs; type: functional, cell-based
MDA-MB-231 [34] = experiment: Induction of DNA damage in human MDA-MB-231 cells assessed as increase in gamma-H2AX level incubated for 24 hrs by immunofluorescence based analysis; type: functional, cell-based
A549 = experiment: Cytotoxicity against human A549 cells in presence of Cu2+ by MTT assay; type: functional, cell-based
MDA-MB-231 [35] = experiment: Cytotoxicity against human MDA-MB-231 cells in presence of Cu2+ by MTT assay; type: functional, cell-based

logP [5]: 3.81
solubility [12]: 15.6 µg/mL (≈ 37.8 µM)
solubility [17]: 17.3 µg/mL (≈ 41.9 µM)
logD [18]: 4.14
Compound: OC[C@H]1O[C@@H](Oc2ccc(COc3cccc4cccnc34)cc2)[C@H](O)[C@@H](O)[C@@H]1O
IC50 (MDA-MB-231 [1]): 1.2 µM
Activity (MDA-MB-231 [2]): Active
Activity (MDA-MB-231 [3]): 24.5%
viability at 24 h [4]: 76.6%
Activity (MDA-MB-231 [6]): inactive
Activity (MDA-MB-231 [7]): 52.3%
Activity (MDA-MB-231 [8]): 0.21%
Activity (MCF-10A [9]): 9.17%
Activity (MCF-10A [10]): 13.3%
Activity (MCF-10A [11]): 0.88%
Activity (MDA-MB-231 [13]): 0.11%
IC50 at 48 h [14]: 4.13 µM
Activity [15]: Non-toxic
Activity (MDA-MB-231 [16]): 23%
selectivity ratio [19]: 2.3

logP ([5]; read-out: logP): 2.93
solubility [12]: 34.2 µg/mL
solubility [17]: 35.5 µg/mL
logD ([18]; read-out: logD): 1.72
Compound: OC[C@H]1O[C@@H](Oc2ccc(C[n+]3cccc4cccc(O)c43)cc2)[C@H](O)[C@@H](O)[C@@H]1O.[Cl-]
inhibition (MDA-MB-231 [20]): Active
IC50 (MDA-MB-231 [1]): 26.2 µM
Activity (MDA-MB-231 [3]): 53.4%
viability at 24 h [4]: 87.4%
IC50 (MDA-MB-231 [21]): 31 µM
Activity (MDA-MB-231 [7]): 36.1%
Activity (MDA-MB-231 [8]): 0.26%
inhibition (MDA-MB-231 [22]): Active
Activity (MCF-10A [23]): Non-toxic
Activity (MCF-10A [9]): 5.79%
Activity (MCF-10A [10]): 6.44%
Activity (MDA-MB-231 [24]): Active
Activity (MCF-10A [11]): 0.4%
Activity (MDA-MB-231 [25]): 970 mm3
inhibition (MDA-MB-231 [26]): Active
Activity (MDA-MB-231 [27]): Active
Activity (MDA-MB-231 [13]): 0.043%
Activity (MCF-10A [28]): Non-toxic
IC50 (MDA-MB-231 [29]): 17.9 µM
Activity [15]: Non-toxic
inhibition in vivo at 20 mg/kg (MDA-MB-231 [30]): 49.6%
Activity (MDA-MB-231 [16]): 10.5%
inhibition (INH) (MCF-10A [31]): Non-toxic
inhibition (MDA-MB-231 [32]): Active
selectivity ratio [19]: 5.7
Activity (MDA-MB-231 [33]): Dose-dependent-effect
Activity (MDA-MB-231 [34]): Active

Compound: OC[C@H]1O[C@@H](Oc2cccc3cccnc23)[C@H](O)[C@@H](O)[C@@H]1O
IC50 (A549): 5.56 µM
IC50 (MDA-MB-231 [35]): 5.56 µM
